# Earlier results, collected in patent US9250230B2, “Using induced pluripotent stem cells for screening anti-neoplastic agents” (priority 2011, dated 2016).
# Columns and labels:
# iPS reprogramming = iPS reprogramming of somatic cells
# [1] = system: chemical reprogramming to CiPSCs; conditions: TTNPB added to small-molecule reprogramming
Compound,effect on reprogramming efficiency (iPS reprogramming),enhancement of reprogramming efficiency of chemical reprogramming [1]
"O=CC[C@@H](O)[C@H](O)[C@H](O)CO [2-DG, 2-deoxy-D-glucose]",inhibited the reprogramming efficiency,
"O=C(CO)[C@@H](O)[C@H](O)[C@H](O)COP(=O)(O)O [F6P, D-fructose-6-phosphate]",increased reprogramming efficiency,
C/C(=C\c1ccc(C(=O)O)cc1)c1ccc2c(c1)C(C)(C)CCC2(C)C [TTNPB],,up to 40 fold
